# Assay results reported in PMC10510246, “Inhibitory effect of O-propargyllawsone in A549 lung adenocarcinoma cells” (BMC Complementary Medicine and Therapies, 2023).
# Counter-ions that a name gives are not always drawn. Like-named read-outs stand apart in the source and are kept apart here.
# Tests used:
# [1] = test system: lung adenocarcinoma (A549) cells; test: Sulforhodamine B (SRB) cell growth inhibition assay, A549; assay type: cell-based; conditions: for IC50: A549, SRB, 72 h, value (95% confidence interval), read-out: IC50 (maximum 50% inhibitory concentration of cell growth)
# Protocol: (§1) The cell lines of lung adenocarcinoma (A549), melanoma (B16-F10) and glioma (C6) were purchased from the Federal University of Rio de Janeiro. Cells were maintained in cell culture flasks in Dulbeccos's Modified Eagle Medium (DMEM) supplemented with 10% Fetal Bovine Serum (FBS) and 1% antibiotic (10,000 U/mL penicillin; […] streptomycin) and incubated at 37 °C in an atmosphere of 5% CO2. After reaching the necessary confluence for carrying out the experiments, the medium was removed, and the cells detached from the bottle using a 0.25% Trypsin–EDTA solution for a period of 1 to 15 min. After this step, the Trypsin–EDTA solution was inactivated with culture medium and the cells were centrifuged, with rotation of 153 G for 10 min at 4 °C. The pellet formed was resuspended in culture medium and the cells were counted in a Neubauer chamber to carry out the experiments.
# (§2) For this experiment, A549, B16-F10 and C6 cells were seeded in 96-well plates at a density of 1 × 10^4 cells/well. After an incubation period of 24 h in a humidified incubator at 37 °C with 5% CO2 atmosphere for adhesion, the cells were treated with lawsone and lawsone derivatives (compounds 1, 2 and 3) for 72 h with concentrations from 25 µM to 0.8 µM. Cells were fixed with 100 μL of 30% trichloroacetic acid for 1 h in a refrigerator at 4 °C. Then, the plate was washed 4 times with water and set to dry. After the drying period, 100 μL of 0.057% Sulforhodamine B (SRB) solution (w/v) dissolved in 1% acetic acid was added for 30 min at room temperature. Then the plate was washed 4 times with 1% acetic acid to remove excess dye. After drying, 200 μL of TRIS 10 mM pH 10.5 was added to dilute the SRB for 30 min. The reading was made in a spectrophotometer (Biotek—H1 Synergy) with a wavelength of 510 nm.
# (§3) Based on the inhibitory degree of the derivatives, the IC50 of the compounds were calculated. The IC50 is the concentration capable of inhibiting 50% of cell growth. The compound that presented the lowest IC50 was compound 1, being selected for evaluation in the following experiments. For this, IC50 values were used as a basis to define concentrations of half of the IC50, the IC50 value and twice the IC50.
# [2] = test system: melanoma (B16-F10) cells; test: Sulforhodamine B (SRB) cell growth inhibition assay, B16-F10; assay type: cell-based; conditions: for IC50: B16-F10, SRB, 72 h, value (95% confidence interval), read-out: IC50 (maximum 50% inhibitory concentration of cell growth)
# Protocol: as §1, §2, §3
# [3] = test system: A549 cells; test: Clonogenic assay; assay type: cell-based; conditions: Homo sapiens, 72 h treatment, read-out: inhibition of colony formation
# Protocol: A549 cells were seeded in a 6-well plate at a density of 150 cells/well and incubated in an incubator with 5% CO2 atmosphere at 37 °C. After 24 h, cells were treated with the compound 1 at concentrations of 1.1, 2.2 and 4.4 µM for 72 h. Dimethyl sulfoxide 0.02% and Doxorubicin 0.2 μM were used as negative control and positive control respectively. The treatment was removed and replaced with a supplemented DMEM medium. The cells were incubated in an atmosphere of 5% CO2 at 37 °C. After 6 days, cells were fixed with methanol + acetic acid (3:1) for 5 min and stained with 0.5% crystal violet in water for 30 min. The plates were photographed, and the images were analyzed using ImageJ 1.46 software.
# [4] = test system: A549 cells; test: Wound-healing assay (cell migration); assay type: cell-based; conditions: for wound closure: A549, 4.4 µM
# Protocol: A549 cells were seeded in a 12-well plate at a density of 4 × 10^5 cells/well and incubated in an incubator with 5% CO2 atmosphere at 37 °C for 24 h. After the incubation period, a straight-line wound was made with the aid of a p200 tip, the supernatant was discarded, and the wells were washed twice with 1 × PBS to remove loose cells. Cells were treated with compound 1 at concentrations of 1.1, 2.2 and 4.4 µM. 0.02% Dimethyl sulfoxide and 0.2 μM Doxorubicin were used as a negative control and positive control, respectively. Images of wound closure were acquired at 0, 24 and 48 h of treatment with an Olympus microscope. The images were analyzed using the ImageJ software version 1.46.
# [5] = test system: A549 cells; test: Annexin V-FITC/PI assay (flow cytometry); assay type: cell-based; conditions: 24 h
# Protocol: A549 cells were seeded in 12-well plates in DMEM medium supplemented with FBS and 1% antibiotic (10,000 U/ml penicillin; […] streptomycin) with a density equal to 2 × 10^5 cells/well and incubated for 24 h. Then, the cells were treated with the compound 1 at concentrations of 1.1, 2.2 and 4.4 µM, for 24 h. Dimethyl sulfoxide 0.02% was used as negative control and 0.2 μM Doxorubicin were used as positive control. After treatment, cells were detached with Accutase solution, transferred to tubes, and washed with PBS. After washing the cells were stained with Annexin V-FITC/PI according to the manufacturer. Samples were analyzed by flow cytometry (Attune NxT Acoustic Focusing Cytometer, Thermo Fisher Scientific). Cells without labeling were considered viable, cells positive only for Annexin V/FITC were considered cells in apoptosis, cells with double labeling for Annexin V/FITC and propidium iodide were considered cells in late apoptosis and cells positive only for iodide propidium were considered cells in necrosis.
# [6] = test system: glioma (C6) cells; test: Sulforhodamine B (SRB) cell growth inhibition assay, C6; assay type: cell-based; conditions: for IC50: C6, SRB, 72 h, value (95% confidence interval), read-out: IC50 (maximum 50% inhibitory concentration of cell growth)
# Protocol: as §1, §2, §3
# [7] = test system: A549 cells; test: Giemsa staining, morphological changes, A549; assay type: cell-based; conditions: A549, 2.2 and 4.4 μM, 24 h
# Protocol: (§4) A549, B16-F10 and C6 cells were seeded on coverslips in 24-well plates at a density of 2 × 10^4 cells/well. After 24 h, cells were treated with the compound 1 derivative using 1.1, 2.2 and 4.4 μM for A549 and C6, and 0.75, 1.5 and 3 µM for B16-F10 for 24 h. After treatment, cells were washed twice with phosphate-buffered saline (PBS) and fixed with methyl alcohol for 3 min. Then cells were stained with Giemsa for 1 min. The slides were evaluated under an optical microscope (Olympus) and the images were captured at 400 × magnification.
# [8] = test system: B16-F10 cells; test: Giemsa staining, morphological changes, B16-F10; assay type: cell-based; conditions: 24 h
# Protocol: as §4
# [9] = test system: C6 cells; test: Giemsa staining, morphological changes, C6; assay type: cell-based; conditions: 24 h
# Protocol: as §4
# [10] = Hemolytic assay; assay type: cell-based, human; conditions: human erythrocytes (2% suspension); human erythrocytes, 110 µM, 1 h; read-out: hemolysis percentage
# Protocol: (§5) The hemolytic activity of the compound 1 was tested using human erythrocytes from healthy volunteers. […] Triton X 100 (0.1%) and Dimethyl sulfoxide (0.1%) were used as positive and negative hemolysis controls, respectively. Erythrocytes were kept under agitation at a temperature of 37 °C for 1 h. After this time, the plate was centrifuged at 405 × g for 5 min and 0.15 mL of the transferred supernatant was read in a spectrophotometer (Biotek—H1 Synergy) with an absorbance of 540 nm.
# [11] = test system: human erythrocytes; test: Hemolytic assay; assay type: cell-based
# Protocol: as §5
smiles,measurement,setting,value
"COc1cccc2c1C(=O)c1c(O)c3c(c(O)c1C2=O)C[C@@](O)(C(=O)CO)C[C@@H]3O[C@H]1C[C@H](N)[C@H](O)[C@H](C)O1 [Doxorubicin, Doxorubicin Hydrochloride, reference compound]",IC50,[1],< 0.6 µM
same,IC50,[2]; listed as Doxorrubicin,0.6 µM
same,IC50,"[2]; Mus musculus, B16-F10, 72 h",< 0.6 µM
same,inhibition at 0.2 µM,"[3]; A549, 0.2 μM (positive control)",96.1%
same,wound closure (wound restored),"[4]; A549, 0.2 μM (positive control), 48 h",78%
same,"changes in the percentage of living, apoptotic or necrotic cells","[5]; A549, 0.2 µM",not possible to observe changes
O=C1C=C(OCc2cn(-c3ccc(Cl)cc3)nn2)C(=O)c2ccccc21 [Compound 3],growth inhibition category,"[1]; A549, 72 h, all concentrations tested (25 µM to 0.8 µM)",low (low when below 50%)
same,growth inhibition category,"[2]; B16-F10, 72 h, all concentrations tested (25 µM to 0.8 µM)",low (low when below 50%)
same,growth inhibition category,"[6]; C6, 72 h, all concentrations tested (25 µM to 0.8 µM)",low (low when below 50%)
O=C1C=C(OCc2cn(-c3ccccc3)nn2)C(=O)c2ccccc21 [Compound 2],growth inhibition category,"[1]; A549, 72 h, concentrations 12.5 to 0.8 µM",low (low when below 50%)
same,IC50,[1],14.9 µM
same,IC50,"[1]; Homo sapiens, A549, 72 h",> 14 µM
same,inhibition at 25 µM,"[1]; Homo sapiens, A549, 72 h, 25 µM, read-out: growth inhibition category",50 to 75%
same,growth inhibition category,"[2]; B16-F10, 72 h, concentrations 12.5 to 0.8 µM",low (low when below 50%)
same,IC50,[2],14.2 µM
same,IC50,"[2]; Mus musculus, B16-F10, 72 h",> 14 µM
same,inhibition at 25 µM,"[2]; Mus musculus, B16-F10, 72 h, 25 µM, read-out: growth inhibition category",50 to 75%
same,growth inhibition category,"[6]; C6, 72 h, concentrations 12.5 to 0.8 µM",low (low when below 50%)
same,IC50,[6]; listed as compound 2,> 14 µM
same,IC50,[6],43.4 µM
"C#CCOC1=CC(=O)c2ccccc2C1=O [Compound 1, O-propargyllawsone]",growth inhibition category,"[1]; A549, 72 h, concentrations from 25 to 6.3 µM",high (high inhibition when above 75%)
same,IC50,[1],2.2 µM
same,IC50,"[1]; Homo sapiens, A549, 72 h",< 2.5 µM
same,inhibitory potential relative to lawsone,"[1]; compared with lawsone IC50, cell line not specified",at least 10 times
same,growth inhibition category,"[2]; B16-F10, 72 h, concentrations from 25 to 6.3 µM",high (high inhibition when above 75%)
same,IC50,[2],1.5 µM
same,IC50,"[2]; Mus musculus, B16-F10, 72 h",< 2.2 µM
same,growth inhibition category,"[6]; C6, 72 h, concentrations from 25 to 6.3 µM",high (high inhibition when above 75%)
same,IC50,[6],2.2 µM
same,IC50,"[6]; Rattus norvegicus, C6, 72 h",< 2.2 µM
same,morphological changes (Giemsa),[7],reduction in cytoplasm and apoptotic cells
same,morphological changes (Giemsa),"[8]; B16-F10, 0.75 µM",reduced cytoplasmic volume and the appearance of apoptotic cells
same,morphological changes (Giemsa),"[8]; B16-F10, 1.5 and 3 µM",reduction in cytoplasm and apoptotic cells
same,morphological changes (Giemsa),"[9]; C6, 1.1 µM",reduced cytoplasmic volume and the appearance of apoptotic cells
same,morphological changes (Giemsa),"[9]; C6, 2.2 and 4.4 μM",reduction in cytoplasm and apoptotic cells
same,"hemolysis at 1 h, 110 µM",[10],< 0.5%
same,toxicity to erythrocytes,[11]; highest concentration tested of 110 µM,not toxic to erythrocytes
same,hemolytic effect,"[11]; human erythrocytes, 13.75, 27.5 and 55 µM, 1 h",no hemolytic effect
same,inhibition at 1.1 µM,"[3]; A549, 1.1 µM, compared to the negative control",31.1%
same,inhibition at 2.2 µM,"[3]; A549, 2.2 µM, compared to the negative control",82.1%
same,inhibition at 4.4 µM,"[3]; A549, 4.4 µM, compared to the negative control",98.1%
same,effect on cell migration,"[4]; A549, 1.1 µM, 24 or 48 h",no significant reduction of migration
same,reduction of wound closure,"[4]; A549, 2.2 µM, 48 h",33%
same,wound closure,[4]; 24 h,18%
same,wound closure,[4]; 48 h,56%
same,"changes in the percentage of living, apoptotic or necrotic cells","[5]; A549, 1.1 µM and 2.2 µM",not able to induce significant changes
same,cells undergoing apoptosis,"[5]; A549, 4.4 µM",47.8%
same,cells undergoing necrosis,"[5]; A549, 4.4 µM",39.7%
same,percentage of living cells,"[5]; A549, 4.4 µM",12.4%
"O=C1C=C(O)C(=O)c2ccccc21 [Lawsone, 2-hydroxy-1,4-naphtoquinone]",IC50,"[1]; Homo sapiens, A549, 72 h",53 µM
same,IC50,"[6]; Rattus norvegicus, C6, 72 h",22.6 µM
